PMC9571594, “Development of Semisynthetic Apoptosis-Inducing Agents Based on Natural Phenolic Acids Scaffold: Design, Synthesis and In-Vitro Biological Evaluation” (Molecules, 2022)
Values after ≈ are worked out from the molar mass of the structure shown. Like-named read-outs stand apart in the source and are kept apart here.

Assays:
Caco-2 cancer cell line = experiment: MTT cell viability assay, Caco-2; type: cell-based
Protocol: (§1) MCF-7 cells (Human breast adenocarcinoma), HepG2 (human hepatocellular carcinoma), A549 (human lung adenocarcinoma), Caco-2 (colon carcinoma), PANC-1 (human pancreatic cancer), and Vero cells (derived from normal kidney cells) were supplied by (Holding Company for Biological Products and Vaccines VACSERA; Giza, Egypt). The cells were cultured in PRMI 1640 medium (Lonza, Switzerland) supplemented with 10% fetal bovine serum (Gibco), 1% penicillin and 1% streptomycin (Sigma Aldrich, Saint Louis, MO, USA) at 37 °C under an atmosphere of 5% CO2 and 95% air.
(§2) The effect of parent compounds and their derivatives were assessed by (3-(4,5-dimethylthiazol-2-yl)-2,5diphenyl-tetrazolium bromide) MTT assay. […] After a merged sheet of cells developed, the growth media was decanted from the 96-well microtiter and refilled with different concentrations of compounds (µg/mL), and the plate was incubated at 37 °C for 48 h to minimize exposure to the dissolving agent (Supporting Information).
(§3) MTT solution (BIO BASIC CANADA INC) was prepared [5 mg/mL in phosphate buffered saline (PBS)], added to each well and incubated for 4 h, then after removing the media, 200 μL of DMSO was added to each well to solubilize the formazan crystals and the optical density of the formazan product was measured at 560 nm using microplate reader (mindray, MR-96A). The results were calculated as the mean of the three independent experiments. […]
(§4) Determination of sample cytotoxicity on cells (MTT protocol) […]
(§5) well) and incubated at 37°C for 24 hours to develop a complete monolayer sheet.
(§6) 2- Growth medium was decanted from 96 well micro titer plates after confluent sheet of cells were formed, cell monolayer was washed twice with wash media.
(§7) 3- two-fold dilutions of tested sample was made in RPMI medium with 2% serum […]
(§8) 4- 0.1 ml of each dilution was tested in different wells leaving 3 wells as control, receiving only maintenance medium.
(§9) 5- Plate was incubated at 37°C and examined. Cells were checked for any physical signs of toxicity, e.g. partial or complete loss of the monolayer, rounding, shrinkage, […]
(§10) 6- MTT solution was prepared (5mg/ml in PBS) (BIO BASIC CANADA INC).
(§11) 8- 20ul MTT solution were added to each well. Place on a shaking table, 150rpm for 5 minutes, to thoroughly mix the MTT into the media.
(§12) 10) Dump off the media. (dry plate on paper towels to remove residue if necessary. […] 9 ش - ايلعلا هبضهلا - مطقملا / ىسيئرلا لمعملا […]

[1] = MTT cell viability assay on normal Vero cells (selectivity); type: cell-based; details: African green monkey, Vero cells (normal kidney cells)
Protocol: (§13) MCF-7 cells (Human breast adenocarcinoma), HepG2 (human hepatocellular carcinoma), A549 (human lung adenocarcinoma), Caco-2 (colon carcinoma), PANC-1 (human pancreatic cancer), and Vero cells (derived from normal kidney cells) were supplied by (Holding Company for Biological Products and Vaccines VACSERA; Giza, Egypt).
as §2, §3, §4, §5, §6, §7, §8, §9, §10, §11
(§14) 10) Dump off the media. (dry plate on paper towels to remove residue if necessary. […]

Vero normal cell line = experiment: as above; type: cell-based
Protocol: as §13, §2, §3, §4, §5, §6, §7, §8, §9, §10, §11, §14

A549 cells = experiment: MTT cell viability assay, A549; type: cell-based, human
Protocol: as §1, §2, §3, §4, §5, §6, §7, §8, §9, §10, §11, §12

For `O=C(O)/C=C/c1ccc(O)c(O)c1` [Compound 1, Caffeic acid], the Toxicity % (Caco-2 cancer cell line; Caco2, 15.625 ug/ml) was 0.09606%, the Toxicity % (Caco-2 cancer cell line; Caco2, 31.25 ug/ml) was 10.47% and the Toxicity % (Caco-2 cancer cell line; Caco2, 62.5 ug/ml) was 52.83%. It also gave a Toxicity % (Caco-2 cancer cell line; Caco2, 125 ug/ml) of 74.26%, a Toxicity % (Caco-2 cancer cell line; Caco2, 250 ug/ml) of 79.92% and a Toxicity % (Caco-2 cancer cell line; Caco2, 500 ug/ml) of 88.09%. The viability at 15.625 µg/mL (Caco-2 cancer cell line; Homo sapiens, Caco-2, Caco2, 15.625 ug/ml) was 99.9%, the viability at 31.25 µg/mL (Caco-2 cancer cell line; Homo sapiens, Caco-2, Caco2, 31.25 ug/ml) was 89.5% and the viability at 62.5 µg/mL (Caco-2 cancer cell line; Homo sapiens, Caco-2, Caco2, 62.5 ug/ml) was 47.2%. It also gave a viability at 125 µg/mL (Caco-2 cancer cell line; Homo sapiens, Caco-2, Caco2, 125 ug/ml) of 25.7%, a viability at 250 µg/mL (Caco-2 cancer cell line; Homo sapiens, Caco-2, Caco2, 250 ug/ml) of 20.1% and a viability at 500 µg/mL (Caco-2 cancer cell line; Homo sapiens, Caco-2, Caco2, 500 ug/ml) of 11.9%. For the same compound, the IC50 (Caco-2 cancer cell line; Homo sapiens, Caco-2, Caco2, MTT report T-4-019-5, Conc. ug/ml, read-out: IC50) was 81.2 µg/mL, the IC50 (Caco-2 cancer cell line; Homo sapiens, Caco-2, MTT, 48 h, average of triplicates, parent compounds and doxorubicin (Table 2), read-out: IC50 (μM) ± SD Caco-2) was 410 µM and the viability at 48 h, 15.625 ug/ml ([1]; 15.625 ug/ml) was 99.1%. For the same compound, the viability at 48 h, 31.25 ug/ml ([1]; 31.25 ug/ml) was 99%, the viability at 48 h, 62.5 ug/ml ([1]; 62.5 ug/ml) was 99.3% and the viability at 48 h, 125 ug/ml ([1]; 125 ug/ml) was 63.6%. The viability at 48 h, 250 ug/ml ([1]; 250 ug/ml) was 22.9%, the viability at 48 h, 500 ug/ml ([1]; 500 ug/ml) was 18.1% and the Toxicity % (Vero normal cell line; 15.625 ug/ml) was 0.8516%. The Toxicity % (Vero normal cell line; 31.25 ug/ml) was 0.9732%, the Toxicity % (Vero normal cell line; 62.5 ug/ml) was 0.7299% and the Toxicity % (Vero normal cell line; 125 ug/ml) was 36.37%. It also gave a Toxicity % (Vero normal cell line; 250 ug/ml) of 77.13%, a Toxicity % (Vero normal cell line; 500 ug/ml) of 81.87% and an IC50 (Vero normal cell line; Chlorocebus sabaeus, MTT report T-4-019-5, Conc. ug/ml) of 176 µg/mL (≈ 977 µM). For the same compound, the Toxicity % (A549 cells; A549, 15.625 ug/ml) was 0.7435%, the Toxicity % (A549 cells; A549, 31.25 ug/ml) was 0.1239% and the Toxicity % (A549 cells; A549, 62.5 ug/ml) was 0.9913%. For the same compound, the Toxicity % (A549 cells; A549, 125 ug/ml) was 3.841%, the Toxicity % (A549 cells; A549, 250 ug/ml) was 52.91% and the Toxicity % (A549 cells; A549, 500 ug/ml) was 78.56%. For the same compound, the IC50 (A549 cells; Homo sapiens, A549, MTT, 48 h, average of triplicates, read-out: IC50 (μM) ± SD A549) was 1630 µM, the viability at 15.625 µg/mL (A549 cells; Homo sapiens, A549, 15.625 ug/ml) was 99.3% and the viability at 31.25 µg/mL (A549 cells; Homo sapiens, A549, 31.25 ug/ml) was 99.9%. The viability at 62.5 µg/mL (A549 cells; Homo sapiens, A549, 62.5 ug/ml) was 99% and the viability at 125 µg/mL (A549 cells; Homo sapiens, A549, 125 ug/ml) was 96.2%.
